Values quoted from earlier work in patent US9040083B2, “Orally effective methylphenidate extended release powder and aqueous suspension product” (Tris Pharma, Inc., priority 2011, dated 2015).

Conditions: oral dosing of radiolabeled methylphenidate in humans

SMILES: COC(=O)C(c1ccccc1)C1CCCCN1 (stereo not shown) [methylphenidate]
- radioactivity recovered in urine: about 90%
